Experimental data taken from patent publication US4259235A, “Tricyclic nitrogenous compounds having string plant growth regulating properties” (BASF Aktiengesellschaft, priority 1977, dated 1981).

Experiments:
spring barley [1] = test: Growth height of spring barley, soil treatment, Example 10; assay type: in vivo, spring barley ("Union" variety)
Procedure: (§1) Spring wheat ("Opal" variety) and spring barley ("Union" variety) were grown under greenhouse conditions in plastic dishes 11.5 cm in diameter, in a peat substrate provided with sufficient nutrients. For the soil (preemergence) treatment, the active ingredients were poured, at two application rates, as aqueous formulations onto the surface of the substrate after sowing.
(§2) The plant height was measured at the end of the experiment. The figures obtained show the shortening effect of the active ingredients under investigation. The prior art compound β-chloroethylphosphonic acid (Ethephon, German Printed Application DAS No. 1,667,968) was used for comparison purposes.

spring barley [2] = test: Growth height of spring barley, leaf treatment, Example 10; assay type: in vivo, spring barley ("Union" variety)
Procedure: as §1
Leaf treatment was effected by spraying the plants at a growth height of 10 cm with aqueous formulations of the active ingredients at two application rates.
as §2

grass = test: Growth height of, and amount of mowings in, grass, Example 12; assay type: in vivo; details: for First mowing, growth height, relative / First mowing, mowings, relative / Second mowing, growth height, relative / Second mowing, mowings, relative: control = 100
Text: In an experiment in large vessels, lawn seed of the following standard composition was sown in a loamy soil: Agrostis tenuis (10%), Cynosurus cristatus (10%), Festuca rubra (15%), Lolium perenne (35%) and Poa pratensis (30%). 1.5 g of N as ammonium nitrate and 1 g of P2 O5 as secondary potassium phosphate were applied as fertilizer. After the grass had been cut twice, the active ingredients were sprayed in conventional manner at various application rates onto the grass which was 4 cm high. The growth height and the mowings were determined 19 days after the treatment. Compared with the control, the treated plants reacted with most considerable height reductions and a proportionate decrease in mowings.

## Brc1ccc(C2=NOC3C4CC(C5N=NC45)C23)cc1 (centres unmarked) [drawing 405]
Spring barley [1]; 3 kg/ha
  Plant height: 28.0 cm
  Plant height, % of untreated control: 81.6%
Spring barley [1]; 12 kg/ha
  Plant height: 26.0 cm
  Plant height, % of untreated control: 75.8%

## O=[N+]([O-])c1ccc(C2=NOC3C4CC(C5N=NC45)C23)cc1 (centres unmarked) [drawing 406]
Spring barley [1]; 3 kg/ha
  Plant height: 27.0 cm
  Plant height, % of untreated control: 78.8%
Spring barley [1]; 12 kg/ha
  Plant height: 24.0 cm
  Plant height, % of untreated control: 70.0%

## Cc1ccc(C2=NOC3C4CC(C5N=NC45)C23)cc1 (centres unmarked) [drawing 407]
Spring barley [1]; 3 kg/ha
  Plant height: 25.0 cm
  Plant height, % of untreated control: 72.9%
Spring barley [1]; 12 kg/ha
  Plant height: 21.0 cm
  Plant height, % of untreated control: 61.2%

## COc1ccc(C2=NOC3C4CC(C5N=NC45)C23)cc1 (centres unmarked) [drawing 408]
Spring barley [1]; 3 kg/ha
  Plant height: 30.0 cm
  Plant height, % of untreated control: 87.5%
Spring barley [1]; 12 kg/ha
  Plant height: 29.0 cm
  Plant height, % of untreated control: 84.5%

## Clc1ccc(C2=NOC3C4CC(C5N=NC45)C23)cc1 (centres unmarked) [drawing 409]
Spring barley [1]; 3 kg/ha
  Plant height: 26.0 cm
  Plant height, % of untreated control: 75.8%
Spring barley [1]; 12 kg/ha
  Plant height: 24.0 cm
  Plant height, % of untreated control: 70.0%

## Clc1ccc(C2N=NC3C4CC(C5N=NC45)C23)cc1 (centres unmarked) [drawing 410]
Spring barley [2]; 1.5 kg/ha
  Plant height: 22.0 cm
  Plant height, % of untreated control: 78.6%
Spring barley [2]; 6.0 kg/ha
  Plant height: 19.5 cm
  Plant height, % of untreated control: 69.6%

## Brc1ccc(C2=NOC3C4CC(C5N=NC45)C23)cc1 (centres unmarked) [drawing 411]
Spring barley [2]; 1.5 kg/ha
  Plant height: 25.5 cm
  Plant height, % of untreated control: 91.1%
Spring barley [2]; 6.0 kg/ha
  Plant height: 25.0 cm
  Plant height, % of untreated control: 89.3%

## O=[N+]([O-])c1ccc(C2=NOC3C4CC(C5N=NC45)C23)cc1 (centres unmarked) [drawing 412]
Spring barley [2]; 1.5 kg/ha
  Plant height: 25.0 cm
  Plant height, % of untreated control: 89.3%
Spring barley [2]; 6.0 kg/ha
  Plant height: 24.5 cm
  Plant height, % of untreated control: 87.5%

## Cc1ccc(C2=NOC3C4CC(C5N=NC45)C23)cc1 (centres unmarked) [drawing 413]
Spring barley [2]; 1.5 kg/ha
  Plant height: 25.5 cm
  Plant height, % of untreated control: 91.1%
Spring barley [2]; 6.0 kg/ha
  Plant height: 25.0 cm
  Plant height, % of untreated control: 89.3%

## Clc1ccc(C2=NOC3C4CC(C5N=NC45)C23)cc1 (centres unmarked) [drawing 414]
Spring barley [2]; 1.5 kg/ha
  Plant height: 26.0 cm
  Plant height, % of untreated control: 92.9%
Spring barley [2]; 6.0 kg/ha
  Plant height: 24.5 cm
  Plant height, % of untreated control: 87.5%

## FC(F)(F)c1cccc(NC2C(I)C3CC2C2N=NC32)c1 (centres unmarked) [drawing 415]
Spring barley [2]; 1.5 kg/ha
  Plant height: 25.0 cm
  Plant height, % of untreated control: 89.3%
Spring barley [2]; 6.0 kg/ha
  Plant height: 24.0 cm
  Plant height, % of untreated control: 85.7%

## c1ccc(C2=NOC3C4CC(C5N=NC45)C23)cc1 (centres unmarked) [drawing 424]
grass; 3.0 kg/ha
  First mowing, growth height: 20.0 cm
  First mowing, mowings: 116.3 g
  Second mowing, growth height: 19.0 cm
  Second mowing, mowings: 94.8 g
  First mowing, growth height, relative: 91.7
  First mowing, mowings, relative: 86.7
  Second mowing, growth height, relative: 95.0
  Second mowing, mowings, relative: 104.6
grass; 6.0 kg/ha
  First mowing, growth height: 17.0 cm
  First mowing, mowings: 101.1 g
  Second mowing, growth height: 16.5 cm
  Second mowing, mowings: 85.2 g
  First mowing, growth height, relative: 78.0
  First mowing, mowings, relative: 75.3
  Second mowing, growth height, relative: 82.5
  Second mowing, mowings, relative: 94.0

## Clc1ccc(C2N=NC3C4CC(C5N=NC45)C23)cc1 (centres unmarked) [drawing 425]
grass; 3.0 kg/ha
  First mowing, growth height: 20.0 cm
  First mowing, mowings: 125.1 g
  Second mowing, growth height: 19.0 cm
  Second mowing, mowings: 89.9 g
  First mowing, growth height, relative: 91.7
  First mowing, mowings, relative: 93.2
  Second mowing, growth height, relative: 95.0
  Second mowing, mowings, relative: 99.2
grass; 6.0 kg/ha
  First mowing, growth height: 18.0 cm
  First mowing, mowings: 119.0 g
  Second mowing, growth height: 19.0 cm
  Second mowing, mowings: 92.2 g
  First mowing, growth height, relative: 82.6
  First mowing, mowings, relative: 88.7
  Second mowing, growth height, relative: 95.0
  Second mowing, mowings, relative: 101.8

## Clc1ccc(C2=NOC3C4CC(C5N=NC45)C23)cc1 (centres unmarked) [drawing 426]
grass; 3.0 kg/ha
  First mowing, growth height: 21.0 cm
  First mowing, mowings: 117.7 g
  Second mowing, growth height: 18.5 cm
  Second mowing, mowings: 75.3 g
  First mowing, growth height, relative: 96.3
  First mowing, mowings, relative: 87.7
  Second mowing, growth height, relative: 92.5
  Second mowing, mowings, relative: 83.1
grass; 6.0 kg/ha
  First mowing, growth height: 18.5 cm
  First mowing, mowings: 114.0 g
  Second mowing, growth height: 17.0 cm
  Second mowing, mowings: 72.1 g
  First mowing, growth height, relative: 84.9
  First mowing, mowings, relative: 84.9
  Second mowing, growth height, relative: 85.0
  Second mowing, mowings, relative: 79.6
